Reference: patent US8932807B2, “High throughput in vitro translation (cell-lysate based) assay for detecting quorum sensing signals” (University of South Carolina, priority 2007, dated 2015)

Legend:
Type in all cases: biochemical, Agrobacterium tumefaciens NTL4 (pCF218)(pCF372)
[1] = target: T1, receptor protein TraR (Agrobacterium tumefaciens, UniProt P33905); assay: cell-free lysate luminescence assay (Beta-Glo) for detection of AHLs; details: for detection of the AHL by the cell-free assay: comparison of absorbance and luminescence assays; for minimum concentration of AHL resulting in an induction ratio greater than 3, Luminescence assay: cell-free lysate, Beta-Glo, 30° 2 h + 1 h, means±SD (n=3); for level that can be detected, luminescence assay / minimum detection limit, luminescence assay: summary statement
T1 construct: expressed in transfected cells; host or cells: Agrobacterium tumefaciens NTL4 (pCF218)(pCF372); crude cell-free lysate (supernatant of sonicated cells)
Method: From step 5) • 6) 50 μl of sample solution containing AHLs was added in 96-well plate. • 7) 50 μl of assay reagent diluted in 20 mM KH2PO4 was added into each well, mix and incubate at 30° for 2 h. • 8) 100 μl of an appropriate luminescent substrate (e.g. β-Glo, Promega) was added into each well, mix and incubate and incubate at 30° C. for 1 h. • 9) luminescence was read by microplate luminometer (e.g. Veritas Turner BioSystems). This experiment is discussed in greater detail below.
(§1) Preparation of cell-free lysate. One liter of the reporter strain was grown in AT minimum glucose media (30° C. with shaking for 18 h) to early exponential-phase and then harvested by centrifugation (12,000×g; 10 min). Cell pellets were collected and resuspended in 5 ml of KH2PO4 buffer (100 mM; pH 7.4), then sonicated for 30 sec. three times and centrifuged (12,000×g) at 4° C. for 30 min to remove particulate cell fragments. The supernatant was collected as the ‘cell-free lysate (CFL)’ reagent, and was stored (−80° C.) until use.
Comparison of absorbance and luminescence assays. To improve the sensitivity of the cell-free approach, a luminescence assay was developed for AHLs. The protocol involved: 1) addition of 50 μl of sample solution containing AHLs into a 96-well plate; 2) addition of 50 μl of cell-free extract, diluted in 20 mM KH2PO4 buffer (pH 7.0) resulting in a protein concentration of 80 μg/ml for each well, and then mixed and incubated at 30° for 2 h; 3) addition of 100 μl of β-Glo® (Promega) into each well, followed by mixing and incubation (30° C. for 1 h); and 4) measurement of luminescence using a Veritus Microplate Luminometer (Turner BioSystems). For control wells, 20 mM KH2PO4 (pH 7.0) buffer was used. To determine the detection limit, a 1:1 serial dilution of each AHL was performed in triplicate using 20 mM KH2PO4 (pH 7.0) buffer. Then, absorbance assays were conducted. Induction of β-galactosidase activity was calculated by dividing the sample absorbance or luminescence with that of controls. An induction ratio greater than 3 was considered active (27).

[2] = target: T1, receptor protein TraR; assay: cell-free lysate absorbance assay (X-Gal, 635 nm) for detection of AHLs; details: for minimum concentration of AHL resulting in an induction ratio greater than 3, Absorbance assay: cell-free lysate, X-Gal, absorbance 635 nm, means±SD (n=3)
Method: Absorbance Assay • 1) A culture of A. tumefaciens NTL4 (pCF218)(pCF372) was grown in 250 ml of AT minimal glucose media plus streptomycin (50 μg/ml) and tetracycline (5 μg/ml) at 30° C. with shaking for 18 hrs. • 2) The resulting cell culture was centrifuged at 10,000 rpm for 10 min. to collect cell pellets. • 3) The collected cell pellets were sonicated in 8 ml of 0.1 M KH2PO4 (pH 7.0) buffer to produce a homogenate. • 4) The sonicated homogenate was centrifuged at 50,000 rpm for 30 min. and the supernatant solution was collected. • 5) The supernatant solution was stored at −20° C. until the experiment. • 6) 50 μl of a sample solution containing AHLs was added to the wells of a 96-well plate. • 7) 50 μl of the collected supernatant solution from step (5), along with 100 μl of 20 mM KH2PO4, was added and mixed to each sample, and each sample was incubated at 30° for 2 h. • 8) 1 μl of X-Gal (20 mg/ml) was added and mixed into each well, and each sample was incubated at 30° C. for 1 h. • 9) The absorbance of each well was read at 635 nm.
as §1
Confirmation of β-galactosidase expression in vitro cell-free solution. To confirm β-galactosidase expression in cell-free solution, the following simple absorbance assay for AHLs was used. The protocol involved: 1) addition of 50 μl of sample solution containing AHLs into a 96-well plate; 2) addition of 50 μl of cell-free extract and 100 μl of 20 mM KH2PO4 (pH 7.0) into each well, followed by mixing and incubation at 30° C. for 2 h; 3) addition of 1 μl of X-Gal (20 mg/ml) into each well, then mixing and incubation at 30° C. for 1 h; and 4) measurement of absorbance in each well at 635 nm by spectrophotometer (Shimadzu UV-2401 PC UV-VIS, Shimadzu Corp.). To determine the detection limits, 1:1 serial dilutions of each AHL in 20 mM KH2PO4 (pH 7.0) buffer were performed in triplicate. Induction of β-galactosidase activity was calculated by dividing the absorbance of samples by those of controls. An induction ratio greater than 3 was considered active.

[3] = test system: binding of AHL/TraR complex to β-galactosidase promoter; assay: inhibition of Reactions 2) and 3) of the cell-free assay by streptomycin; details: 1 μM C8-AHL, 30 min pre-incubation, absorbance, FIG. 5C
Method: Inhibition of Reactions 2) and 3). […] First, 50 μl aliquots of 1 μM C8-AHL solution was added to each tube, followed by addition of cell-free extract. Further, a series of increasing concentrations of streptomycin (i.e. 0, 50, 125, 250, 300 μg) were added to the cell-free extract and incubated for 30 min. prior to the assay (4, 22, 29). Then, β-galactosidase expression was measured by absorbance.

T1 sequence (P33905 whole entry): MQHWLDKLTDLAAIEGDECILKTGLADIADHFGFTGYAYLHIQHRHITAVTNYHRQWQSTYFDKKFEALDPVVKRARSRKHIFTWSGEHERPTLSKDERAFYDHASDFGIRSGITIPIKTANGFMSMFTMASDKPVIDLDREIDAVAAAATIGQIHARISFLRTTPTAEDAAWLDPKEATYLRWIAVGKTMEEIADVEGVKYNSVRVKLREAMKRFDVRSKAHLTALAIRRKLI

Compound | minimum concentration of AHL resulting in an induction ratio greater than 3, Luminescence assay [1] | level that can be detected, luminescence assay [1] | minimum concentration of AHL resulting in an induction ratio greater than 3, Absorbance assay [2] | minimum detection limit, luminescence assay [1] | further results
CCCC(=O)N[C@H]1CCOC1=O [C4-AHL, N-butanoyl-homoserine lactone] | – | – | – | – | detection of the AHL by the cell-free assay [1]: not able to detect
CCCCCC(=O)NC1CCOC1=O (stereo not drawn) [C6-AHL, N-hexanoyl-homoserine lactone] | 30 ± 3 nM | low μM level | 335 ± 10 nM | – | –
CCCCCCC(=O)N[C@H]1CCOC1=O [C7-AHL, N-heptanoyl-homoserine lactone] | 25 ± 5 nM | – | 245 ± 8 nM | approximately 10 nM | –
CCCCCCCC(=O)NC1CCOC1=O (stereo not drawn) [C8-AHL, N-octanoyl-homoserine lactone] | 20 ± 2 nM | – | 225 ± 11 nM | approximately 10 nM | absorbance changes (635 nm) proportional to concentration, up to ([2]; dose-response of β-galactosidase expression, FIG. 6): up to 2 μM
CCCCCCCCCC(=O)N[C@H]1CCOC1=O [C10-AHL, N-decanoyl-homoserine lactone] | 100 ± 5 nM | low μM level | 1300 ± 20 nM | – | –
CCCCCCCCCCCC(=O)NC1CCOC1=O (stereo not drawn) [C12-AHL, N-dodecanoyl-homoserine lactone] | 200 ± 6 nM | low μM level | 2400 ± 30 nM | – | –
CCCCCCCCCCCCCC(=O)N[C@H]1CCOC1=O [C14-AHL, N-tetradecanoyl-homoserine lactones] | – | – | – | – | detection of the AHL by the cell-free assay [1]: not able to detect
CCCC(=O)CC(=O)N[C@H]1CCOC1=O [oxo-C6-AHL, N-3-oxo-hexanoyl-homoserine lactone] | 17 ± 2 nM | – | 180 ± 25 nM | approximately 10 nM | –
CCCCCC(=O)CC(=O)NC1CCOC1=O (stereo not drawn) [oxo-C8-AHL, N-3-oxo-octanoyl-homoserine lactone] | 10 ± 3 nM | – | 120 ± 10 nM | – | –
[H]/N=C(/N)N[C@H]1[C@H](O)[C@@H](O)[C@H](O[C@@H]2O[C@@H](C)[C@](O)(C=O)[C@H]2O[C@@H]2O[C@@H](CO)[C@H](O)[C@@H](O)[C@@H]2NC)[C@@H](N/C(N)=N\[H])[C@@H]1O [streptomycin] | – | – | – | – | streptomycin additions that reduced assay activities [3]: above 125 μg/ml
